According to ChEMBL document CHEMBL4261501, “Design, synthesis and biological evaluation of imidazopyridine-propenone conjugates as potent tubulin inhibitors” (Medchemcomm, 2017):
Active and inactive are the calls of the source. The calls are words filed in the database; no cut-off is given here.

Tests used:
A549 [1] = experiment: Induction of apoptosis in human A549 cells assessed as live cells at 1 uM after 48 hrs by Annexin V-FITC/propidium iodide staining based flow cytometry (reference value: 93.97%); assay type: functional
A549 [2] = experiment: Induction of mitochondrial membrane potential loss in human A549 cells assessed as intact mitochondrial membrane at 1 uM after 48 hrs by JC1 staining based flow cytomtery (reference value: 96.3%); assay type: functional
A549 [3] = experiment: Cell cycle arrest in human A549 cells assessed as accumulation at S phase at 1 uM after 48 hrs by propidium iodide staining based flow cytometry (reference value: 1.92%); assay type: functional
A549 [4] = experiment: Cell cycle arrest in human A549 cells assessed as accumulation at G2/M phase at 1 uM after 48 hrs by propidium iodide staining based flow cytometry (reference value: 7.4%); assay type: functional
A549 [5] = experiment: Cell cycle arrest in human A549 cells assessed as accumulation at G2/M phase at 0.5 uM after 48 hrs by propidium iodide staining based flow cytometry (reference value: 7.4%); assay type: functional
A549 [6] = experiment: Induction of apoptosis in human A549 cells assessed as cytoplasmic condensation at 0.5 uM after 48 hrs by Hoechst 33258 staining based fluorescence microscopic analysis; assay type: functional, cell-based
Tubulin (Homo sapiens) = Tubulin (Homo sapiens) (UniProt P68371+Q9H4B7+P0DPH7+P68366+Q13509+Q71U36+P04350+Q3ZCM7+P07437+P68363+Q9BQE3+Q6PEY2+Q13885+Q9BVA1+Q9BUF5); experiment: Inhibition of tubulin polymerization (unknown origin) at 3 uM after 1 hr by fluorescence assay relative to control; assay type: protein-complex assay
A549 [7] = experiment: Cell cycle arrest in human A549 cells assessed as accumulation at S phase at 0.5 uM after 48 hrs by propidium iodide staining based flow cytometry (reference value: 1.92%); assay type: functional
A549 [8] = experiment: Induction of apoptosis in human A549 cells assessed as early apoptotic cells at 1 uM after 48 hrs by Annexin V-FITC/propidium iodide staining based flow cytometry (reference value: 1.03%); assay type: functional
Tubulin = experiment: Inhibition of tubulin polymerization (unknown origin) after 1 hr by fluorescence assay; assay type: protein-complex assay, Homo sapiens
A549 [9] = experiment: Induction of apoptosis in human A549 cells assessed as necrotic cells at 0.5 uM after 48 hrs by Annexin V-FITC/propidium iodide staining based flow cytometry (reference value: 1.17%); assay type: functional
MCF7 = experiment: cells; conditions: Homo sapiens, MCF7, 48 h
Description: Cytotoxicity against human MCF7 cells after 48 hrs by MTT assay

A549 [10] = experiment: Disruption of microtubule organization in human A549 cells at 0.5 uM after 48 hrs by fluorescence microscopic analysis; assay type: cell-based
A549 [11] = experiment: Induction of apoptosis in human A549 cells assessed as late apoptotic cells at 1 uM after 48 hrs by Annexin V-FITC/propidium iodide staining based flow cytometry (reference value: 3.83%); assay type: functional
A549 [12] = experiment: cells; conditions: Homo sapiens, A549, 48 h
Description: Cytotoxicity against human A549 cells after 48 hrs by MTT assay

A549 [13] = experiment: Induction of apoptosis in human A549 cells assessed as formation of apoptotic bodies at 0.5 uM after 48 hrs by Hoechst 33258 staining based fluorescence microscopic analysis; assay type: functional, cell-based
A549 [14] = experiment: Cell cycle arrest in human A549 cells assessed as accumulation at G0/G1 phase at 1 uM after 48 hrs by propidium iodide staining based flow cytometry (reference value: 90.52%); assay type: functional
A549 [15] = experiment: Induction of mitochondrial membrane potential loss in human A549 cells assessed as intact mitochondrial membrane at 0.5 uM after 48 hrs by JC1 staining based flow cytomtery (reference value: 96.3%); assay type: functional
A549 [16] = experiment: Cell cycle arrest in human A549 cells assessed as accumulation at G0/G1 phase at 0.5 uM after 48 hrs by propidium iodide staining based flow cytometry (reference value: 90.52%); assay type: functional
A549 [17] = experiment: Induction of mitochondrial membrane potential loss in human A549 cells assessed as collapse of the mitochondrial membrane potential at 1 uM after 48 hrs by JC1 staining based flow cytomtery (reference value: 3.5%); assay type: functional
HeLa = experiment: cells; conditions: Homo sapiens, 48 h
Description: Cytotoxicity against human HeLa cells after 48 hrs by MTT assay

A549 [18] = experiment: Induction of apoptosis in human A549 cells assessed as live cells at 0.5 uM after 48 hrs by Annexin V-FITC/propidium iodide staining based flow cytometry (reference value: 93.97%); assay type: functional
A549 [19] = experiment: Cell cycle arrest in human A549 cells assessed as accumulation at sub-G1 phase at 1 uM after 48 hrs by propidium iodide staining based flow cytometry (reference value: 1.11%); assay type: functional
A549 [20] = experiment: Induction of apoptosis in human A549 cells assessed as necrotic cells at 1 uM after 48 hrs by Annexin V-FITC/propidium iodide staining based flow cytometry (reference value: 1.17%); assay type: functional
DU-145 = experiment: Cytotoxicity against human DU145 cells after 48 hrs by MTT assay; assay type: functional, cell-based; conditions: DU-145, 48 h
A549 [21] = experiment: Induction of mitochondrial membrane potential loss in human A549 cells assessed as collapse of the mitochondrial membrane potential at 0.5 uM after 48 hrs by JC1 staining based flow cytomtery (reference value: 3.5%); assay type: functional
A549 [22] = experiment: Induction of apoptosis in human A549 cells assessed as late apoptotic cells at 0.5 uM after 48 hrs by Annexin V-FITC/propidium iodide staining based flow cytometry (reference value: 3.83%); assay type: functional
A549 [23] = experiment: Induction of apoptosis in human A549 cells assessed as nuclear fragmentation at 0.5 uM after 48 hrs by Hoechst 33258 staining based fluorescence microscopic analysis; assay type: functional, cell-based
A549 [24] = experiment: Induction of apoptosis in human A549 cells assessed as early apoptotic cells at 0.5 uM after 48 hrs by Annexin V-FITC/propidium iodide staining based flow cytometry (reference value: 1.03%); assay type: functional
A549 [25] = experiment: Cell cycle arrest in human A549 cells assessed as accumulation at sub-G1 phase at 0.5 uM after 48 hrs by propidium iodide staining based flow cytometry (reference value: 1.11%); assay type: functional

## O=C(/C=C\Nc1ccc2ncccc2c1)c1c(-c2ccccc2)nc2ccccn12
A549 [1]
  Activity: 45.4 - 45.42%
A549 [2]
  Activity: 60.8%
A549 [3]
  Activity: 4.28%
A549 [4]
  Activity: 30.5%
A549 [5]
  Activity: 15.69%
A549 [6]
  Activity: Active
Tubulin (Homo sapiens)
  inhibition: 68.2%
A549 [7]
  Activity: 2.77%
A549 [8]
  Activity: 34.99 - 35%
Tubulin
  IC50: 1.82 µM
A549 [9]
  Activity: 0.75 - 0.8%
MCF7
  IC50: 1.81 µM
A549 [10]
  Activity: Active
A549 [11]
  Activity: 18.5 - 18.52%
A549 [12]
  IC50: 0.861 µM
A549 [13]
  Activity: Active
A549 [14]
  Activity: 66.32%
A549 [15]
  Activity: 73.5%
A549 [16]
  Activity: 82.37%
A549 [17]
  Activity: 31.7%
HeLa
  IC50: 1.22 µM
A549 [18]
  Activity: 64.98 - 65%
A549 [19]
  Activity: 0.91%
A549 [20]
  Activity: 1.07 - 1.1%
DU-145
  IC50: 1.08 µM
A549 [21]
  Activity: 22.5%
A549 [22]
  Activity: 11.35 - 11.4%
A549 [23]
  Activity: Active
A549 [24]
  Activity: 22.9 - 22.92%
A549 [25]
  Activity: 0.5%
